Experimental data: patent US12097189B1, “Pharmaceutical composition for modified release” (ASTELLAS PHARMA INC., priority 2024, dated 2024)

Legend:
[1] = Elimination half-life of compound A; details: in vivo; read-out: elimination half-life (T1/2)
From the text: Taking into consideration the results of the clinical trial described above, the present inventors conducted intensive studies to design the formulation by paying attention to the control of a release rate of the drug from a formulation to the extent that the release is not affected by food intake or the like, rather than the addition of release control.

[2] = Pharmacokinetics (PK) test of immediate release formulation (capsule formulation) in human: Cmax and heart rate; format: in vivo; details: healthy subjects; immediate release capsules, 0.1 mg to 340 mg
Description: An immediate release formulation (capsule formulation) containing compound A was administered to healthy subjects in a fasted state, before 30 min from the intake of a meal, or after 30 min from the meal, and the drug concentration in the plasma was measured. The immediate release formulations (capsule formulations) containing 0.1 mg, 1 mg, 5 mg, 20 mg, and 80 mg of the compound A were used in combinations as needed so that the dose of compound A became 0.1 mg, 1 mg, 3 mg, 10 mg, 30 mg, 100 mg, 160 mg, 240 mg, and 340 mg.

- half-life [1]: 18 to 24 h
SMILES: Nc1nc(CC(=O)Nc2ccc(CCNC[C@H](O)c3ccccc3)cc2)cs1 [compound A, (R)-2-(2-aminothiazol-4-yl)-4′-[2-[(2-hydroxy-2-phenylethyl)amino]ethyl]acetic acid anilide]
- relation between maximum plasma concentration (Cmax) and increase in heart rate from the base line [2]: a positive correlation was observed
